Where two headings read alike, the source gives them in different places.
What was measured:
Format in all cases: biochemical
recombinant human HSD2 = target: T1, recombinant human HSD2 (Homo sapiens, UniProt P37059); test: HSD2 inhibition, HPLC assay of [3H]-E2 to [3H]-E1 conversion; conditions: read-out: HSD2 inhibition at 1 µM
T1 construct: made in house; host or cells: Sf9 insect cells
T1 sequence (P37059 1-387): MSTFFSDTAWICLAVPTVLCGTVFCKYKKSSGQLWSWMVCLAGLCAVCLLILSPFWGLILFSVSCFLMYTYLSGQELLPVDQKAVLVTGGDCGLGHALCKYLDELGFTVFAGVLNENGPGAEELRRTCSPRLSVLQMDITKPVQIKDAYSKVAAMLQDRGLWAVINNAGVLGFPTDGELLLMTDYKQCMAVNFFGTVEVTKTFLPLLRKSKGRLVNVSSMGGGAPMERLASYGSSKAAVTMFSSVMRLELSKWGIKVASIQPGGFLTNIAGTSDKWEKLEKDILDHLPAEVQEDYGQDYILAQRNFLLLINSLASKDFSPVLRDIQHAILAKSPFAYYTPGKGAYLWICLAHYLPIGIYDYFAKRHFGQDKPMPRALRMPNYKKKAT
Experimental: The inhibition was determined by HPLC using recombinant human HSD1 and HSD2 proteins as described in a prior study. In short, recombinant human HSD1 and HSD2 were produced in Sf9-insect cells. […]. After incubation, the reaction was stopped by addition of […] 10% trichloroacetic acid per sample. After incubation the substrate and the product of enzymatic conversion [3H]-E1 and [3H]-E2 were separated and quantified by HPLC (Alliance 2790, Waters, Milford, MA) connected to an online counter (Packard Flow Scintillation Analyser; Perkin Elmer Inc., Waltham, […]). The ratio of [3H]-E1 converted to [3H]-E2 or vice versa determines the conversion percentage of the samples. Inhibition was measured in three concentrations (100 nM, 1, and 5 µM) in order to follow the progression of inhibition efficiencies. Inhibition efficiencies of the tested inhibitors were calculated by comparing the conversion percentages of the samples including inhibitors with those of conversion controls (without inhibitors).

MAO-A = target: T2, MAO-A (Homo sapiens, UniProt P21397); test: MAO-A inhibition, continuous spectrophotometric assay; conditions: read-out: MAO-A inhibition at 100 µM
T2 construct: purchased Sigma-Aldrich (St. Louis, MO)
T2 sequence (P21397 1-527): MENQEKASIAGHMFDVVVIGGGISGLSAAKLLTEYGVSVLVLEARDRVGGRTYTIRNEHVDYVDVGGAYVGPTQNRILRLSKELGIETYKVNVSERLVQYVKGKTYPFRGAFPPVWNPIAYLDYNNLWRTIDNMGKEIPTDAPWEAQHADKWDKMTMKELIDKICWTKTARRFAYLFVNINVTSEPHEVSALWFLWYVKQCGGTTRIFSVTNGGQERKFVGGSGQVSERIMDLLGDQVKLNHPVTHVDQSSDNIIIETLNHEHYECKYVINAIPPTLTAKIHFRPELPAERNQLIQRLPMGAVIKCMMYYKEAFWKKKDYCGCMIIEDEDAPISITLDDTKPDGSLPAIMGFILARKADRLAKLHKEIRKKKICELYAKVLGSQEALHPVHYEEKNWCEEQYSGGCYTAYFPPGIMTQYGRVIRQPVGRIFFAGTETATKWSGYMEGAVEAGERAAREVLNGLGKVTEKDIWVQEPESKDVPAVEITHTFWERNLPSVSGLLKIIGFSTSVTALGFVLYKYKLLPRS
Experimental: (§1) The protocol of continuous spectrophotometric assay by Holt et al. was first used to determine the activity of the proteins. […] The protein was first incubated for 30 min at 37 °C in the chromogenic solution and then the substrate tyramine was introduced at 0.5 mM final plate concentration completing the assay volume. […] The assay should produce absorbance change of ∼0.35[23]. […] These protein concentrations were selected to be used to analyse the molecules 1–9. The analysis conditions followed the above-described assay protocol[23] and the activity of tested molecules was measured at 100 µM for MAO-A and at 10 µM for MAO-B. The analysis was performed as single point measurements and the signal was read by the same instrument at the expected assay maximum indicated by the activity measurements, at 30 min for MAO-A and at 2 h for MAO-B, respectively. […] The observed activity was calculated as inhibition percentage (Table 1).

MAO-B [1] = target: T3, MAO-B (Homo sapiens, UniProt P27338); test: MAO-B inhibition, continuous spectrophotometric assay; conditions: single point, read at 2 h
T3 construct: purchased Sigma-Aldrich (St. Louis, MO)
T3 sequence (P27338 1-520): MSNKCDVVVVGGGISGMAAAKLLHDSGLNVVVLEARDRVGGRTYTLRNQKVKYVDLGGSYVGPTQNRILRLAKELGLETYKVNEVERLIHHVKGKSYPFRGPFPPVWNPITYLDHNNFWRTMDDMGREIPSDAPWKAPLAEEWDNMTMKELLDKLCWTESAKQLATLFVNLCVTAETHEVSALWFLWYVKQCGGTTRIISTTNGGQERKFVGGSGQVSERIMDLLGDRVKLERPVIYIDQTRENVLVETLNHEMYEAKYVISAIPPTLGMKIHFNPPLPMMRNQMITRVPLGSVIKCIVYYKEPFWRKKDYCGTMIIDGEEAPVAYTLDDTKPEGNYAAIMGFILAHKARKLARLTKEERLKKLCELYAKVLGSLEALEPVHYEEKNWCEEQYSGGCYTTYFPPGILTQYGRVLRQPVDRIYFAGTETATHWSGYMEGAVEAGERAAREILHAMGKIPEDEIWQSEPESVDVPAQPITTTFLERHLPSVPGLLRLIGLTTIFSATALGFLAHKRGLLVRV
Experimental: as §1

MAO-B [2] = target: T3, MAO-B; test: as above
[3] = 100 µM, single point, read at 30 min
[4] = 10 µM, read-out: MAO-B inhibition at 10 µM
[5] = duplicated dilution series, read-out: MAO-B inhibition pIC50 (converted)
[6] = restated from pIC50 above 6, read-out: MAO-B inhibition IC50

SMILES	inhibition at 1 µM (recombinant human HSD2)	inhibition at 100 µM (MAO-A; [3])	inhibition at 10 µM (MAO-B [1]; [4])	inhibition at 100 µM (MAO-A)	inhibition at 10 µM (MAO-B [1]; read-out: MAO-B inhibition at 10 µM, 10 µM)	IC50 (MAO-B [2]; [5])	IC50 (MAO-B [2]; [6])
COc1ccc(-c2cc3cccc(O)c3oc2=O)cc1 [Compound 1, 8-hydroxy-3–(4-methoxyphenyl)-2H-chromen-2-one]	27%	4%	48%	–	–	–	–
O=c1oc2ccc(O)cc2cc1-c1ccc(O)cc1 [Compound 2, 6-hydroxy-3–(4-hydroxyphenyl)-2H-chromen-2-one]	7%	–	–	-6%	16%	–	–
O=c1oc2ccccc2cc1-c1cccc(O)c1 [Compound 3, 3–(3-hydroxyphenyl)-2H-chromen-2-one]	42%	4%	50%	–	–	–	–
O=c1oc2ccc(Cl)cc2cc1-c1cccc(O)c1 [Compound 4, 6-chloro-3–(3-hydroxyphenyl)-2H-chromen-2-one]	16%	–	64%	–	–	–	–
COc1ccc2cc(-c3ccc(O)c(F)c3)c(=O)oc2c1 [Compound 6, 3–(3-fluoro-4-hydroxyphenyl)-7-methoxy-2H-chromen-2-one]	31%	-1%	–	–	–	407 nM	< 1000 nM
COc1ccc2oc(=O)c(-c3ccc(O)c(F)c3)cc2c1 [Compound 7, 3–(3-fluoro-4-hydroxyphenyl)-6-methoxy-2H-chromen-2-one]	13%	-11%	–	–	–	851 nM	< 1000 nM

From article PMC6010071, “Blocking oestradiol synthesis pathways with potent and selective coumarin derivatives” (Journal of Enzyme Inhibition and Medicinal Chemistry, 2018)
